Laboratory results reported in ChEMBL document CHEMBL1201862, “PubChem BioAssay data set” (2004).
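How tested: cells in 96-well plates exposed to compound for 48 hours at five concentrations. At the GI50, growth is halved.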 Calls of active or inactive are those of the source. Rule as the data show it: active = GI50 up to about 1.1 µM and inactive = higher.

Experiments:
Assay in all cases: DTP human tumour cell line panel, 48 h
UACC-257 = tested on: UACC-257
SR = tested on: SR
SF-268 = tested on: SF-268
OVCAR-3 = tested on: OVCAR-3
PC-3 = tested on: PC-3
HOP-92 = tested on: HOP-92
A549 = tested on: A549
MDA-MB-231 = tested on: MDA-MB-231
MCF7 = tested on: MCF7
CAKI-1 = tested on: CAKI-1
SF-295 = tested on: SF-295
BT-549 = tested on: BT-549
COLO 205 = tested on: COLO 205
MOLT-4 = tested on: MOLT-4
ACHN = tested on: ACHN
786-0 = tested on: 786-0
SN12C = tested on: SN12C
KM12 = tested on: KM12
HL-60 = tested on: HL-60
SNB-75 = tested on: SNB-75

SMILES | GI50 (UACC-257) | GI50 (SR) | GI50 (SF-268) | GI50 (OVCAR-3) | GI50 (PC-3) | GI50 (HOP-92) | GI50 (A549) | GI50 (MDA-MB-231) | GI50 (MCF7) | GI50 (CAKI-1) | GI50 (SF-295) | GI50 (BT-549) | GI50 (COLO 205) | GI50 (MOLT-4) | GI50 (ACHN) | GI50 (786-0) | GI50 (SN12C) | GI50 (KM12) | GI50 (HL-60) | GI50 (SNB-75)
O=N/N=c1\o[n-][n+](CCc2ccccc2)c1Cc1/c(=N/N=O)o[n-][n+]1CCc1ccccc1 | > 100 µM (inactive) | 31.2 µM (inactive) | 32 µM (inactive) | 18.7 µM (inactive) | 33.8 µM (inactive) | 27.1 µM (inactive) | > 100 µM (inactive) | 33.9 µM (inactive) | 70 µM (inactive) | > 100 µM (inactive) | 25.6 µM (inactive) | 32.9 µM (inactive) | > 100 µM (inactive) | > 100 µM (inactive) | 31.4 µM (inactive) | 20.2 µM (inactive) | 34.5 µM (inactive) | 78.2 µM (inactive) | 30.8 µM (inactive) | 19 µM (inactive)
CCCC(=O)NC(Nc1ccc(S(=O)(=O)Nc2cc(C)on2)cc1)(C(=O)OCC)C(F)(F)F (stereo not given) | > 100 µM (inactive) | 9.75 µM (inactive) | > 100 µM (inactive) | > 100 µM (inactive) | > 100 µM (inactive) | > 100 µM (inactive) | > 100 µM (inactive) | > 100 µM (inactive) | > 100 µM (inactive) | > 100 µM (inactive) | > 100 µM (inactive) | > 100 µM (inactive) | > 100 µM (inactive) | 55.3 µM (inactive) | > 100 µM (inactive) | > 100 µM (inactive) | > 100 µM (inactive) | > 100 µM (inactive) | > 100 µM (inactive) | > 100 µM (inactive)
Cc1ccc2c(c1C)C(=O)C1(C2)Cc2ccc3c(c2C1=O)CCC3 (stereo not given) | > 100 µM (inactive) | > 100 µM (inactive) | > 100 µM (inactive) | > 100 µM (inactive) | > 100 µM (inactive) | > 100 µM (inactive) | > 100 µM (inactive) | > 100 µM (inactive) | > 100 µM (inactive) | > 100 µM (inactive) | > 100 µM (inactive) | > 100 µM (inactive) | > 100 µM (inactive) | > 100 µM (inactive) | > 100 µM (inactive) | > 100 µM (inactive) | > 100 µM (inactive) | > 100 µM (inactive) | > 100 µM (inactive) | > 100 µM (inactive)
C=C1CC(COc2ccc3ccc(=O)oc3c2)(c2ccccc2)OC1=O (stereo not given) | 1.71 µM (inactive) | 0.867 µM (active) | 3.27 µM (inactive) | 1.61 µM (inactive) | 2.69 µM (inactive) | 0.685 µM (active) | 10.6 µM (inactive) | 2.52 µM (inactive) | 1.26 µM (inactive) | 0.885 µM (active) | 6.78 µM (inactive) | 1.54 µM (inactive) | 0.625 µM (active) | 1.25 µM (inactive) | 2.01 µM (inactive) | 1.46 µM (inactive) | 2.73 µM (inactive) | 3.27 µM (inactive) | 0.0803 µM (active) | 5.92 µM (inactive)
N#Cc1c(NC(=S)NCc2ccccc2)sc2c1CCN(N1CCc3c(sc(NC(=S)NCc4ccccc4)c3C#N)C1)C2 | > 100 µM (inactive) | > 100 µM (inactive) | > 100 µM (inactive) | > 100 µM (inactive) | > 100 µM (inactive) | > 100 µM (inactive) | > 100 µM (inactive) | > 100 µM (inactive) | > 100 µM (inactive) | > 100 µM (inactive) | > 100 µM (inactive) | > 100 µM (inactive) | > 100 µM (inactive) | > 100 µM (inactive) | > 100 µM (inactive) | > 100 µM (inactive) | > 100 µM (inactive) | > 100 µM (inactive) | > 100 µM (inactive) | > 100 µM (inactive)
COC1CC(OC2CCC3(C)C(CCC45CCC(C6=CC(=O)OC6)C(C)(CCC43)C5=O)C2)OC(C)C1O (stereo not given) | > 100 µM (inactive) | 28.1 µM (inactive) | 17.5 µM (inactive) | 27.7 µM (inactive) | 39.3 µM (inactive) | 81.5 µM (inactive) | 28.5 µM (inactive) | > 100 µM (inactive) | 50.7 µM (inactive) | 32.6 µM (inactive) | 33.9 µM (inactive) | 20.8 µM (inactive) | 40.5 µM (inactive) | 32.1 µM (inactive) | 22.1 µM (inactive) | 23.6 µM (inactive) | 23.5 µM (inactive) | 64.4 µM (inactive) | 18.8 µM (inactive) | 30.3 µM (inactive)
NC(=O)N/N=C1\C[C@H]2CCCC[C@H]2C1 | > 100 µM (inactive) | > 100 µM (inactive) | > 100 µM (inactive) | > 100 µM (inactive) | > 100 µM (inactive) | > 100 µM (inactive) | > 100 µM (inactive) | > 100 µM (inactive) | > 100 µM (inactive) | > 100 µM (inactive) | > 100 µM (inactive) | 42.7 µM (inactive) | > 100 µM (inactive) | > 100 µM (inactive) | > 100 µM (inactive) | > 100 µM (inactive) | > 100 µM (inactive) | > 100 µM (inactive) | > 100 µM (inactive) | > 100 µM (inactive)
CC(C)(C)OC(=O)N1C[C@H](CC(=O)OCc2ccccc2)C[C@H]1C(=O)OCC(Cl)(Cl)Cl | 5.89 µM (inactive) | 2.04 µM (inactive) | 8.28 µM (inactive) | 3.43 µM (inactive) | 2.17 µM (inactive) | 1.79 µM (inactive) | 4.69 µM (inactive) | 11.3 µM (inactive) | 3.11 µM (inactive) | 3.7 µM (inactive) | 2.38 µM (inactive) | 8.15 µM (inactive) | 3.18 µM (inactive) | 1.19 µM (inactive) | 5.01 µM (inactive) | 5.96 µM (inactive) | 6.62 µM (inactive) | 2.76 µM (inactive) | 2.68 µM (inactive) | 10.5 µM (inactive)
O=C1O[C@H]2[C@H](OC(=O)c3cc(O)c(O)c(O)c3)[C@@H](OC(=O)c3cc(O)c(O)c4c3[C@@H]3C1=CC(=O)C(O)(O)C3(O)O4)[C@H](OC(=O)c1cc(O)c(O)c(O)c1)O[C@@H]2COC(=O)c1cc(O)c(O)c(O)c1 (stereo not given in full) [TERCHEBIN] | > 100 µM (inactive) | 44.2 µM (inactive) | 59.3 µM (inactive) | 39.5 µM (inactive) | 34.9 µM (inactive) | 47.8 µM (inactive) | 23.9 µM (inactive) | 41.9 µM (inactive) | 74.5 µM (inactive) | 36.2 µM (inactive) | 48.4 µM (inactive) | > 100 µM (inactive) | 39.5 µM (inactive) | 41.9 µM (inactive) | 27.9 µM (inactive) | 60.8 µM (inactive) | > 100 µM (inactive) | 14.6 µM (inactive) | 26.7 µM (inactive) | 49.9 µM (inactive)
COc1cc2c(c(OC)c1OC)C(=O)[C@H](Br)[C@H]2NC(=O)NCCCl | > 100 µM (inactive) | 76.2 µM (inactive) | 49.9 µM (inactive) | 68.2 µM (inactive) | > 100 µM (inactive) | > 100 µM (inactive) | 79.6 µM (inactive) | > 100 µM (inactive) | > 100 µM (inactive) | > 100 µM (inactive) | > 100 µM (inactive) | 38.6 µM (inactive) | 50.8 µM (inactive) | 46.7 µM (inactive) | > 100 µM (inactive) | > 100 µM (inactive) | > 100 µM (inactive) | 72.8 µM (inactive) | 75.5 µM (inactive) | > 100 µM (inactive)
Cc1cn(C2CC(O)C(CO)O2)c(=O)[nH]c1=O (stereo not given) | 3760 µM (inactive) | > 2020 µM (inactive) | 2280 µM (inactive) | 1490 µM (inactive) | > 5000 µM (inactive) | 3020 µM (inactive) | 689 µM (inactive) | > 3520 µM (inactive) | 325 µM (inactive) | 1420 µM (inactive) | 2290 µM (inactive) | > 5000 µM (inactive) | 3090 µM (inactive) | 386 µM (inactive) | 1840 µM (inactive) | 1160 µM (inactive) | 1220 µM (inactive) | > 4930 µM (inactive) | > 4760 µM (inactive) | 3630 µM (inactive)
CCCCCCCCCCCCCC(=O)OC(/C=C/C(C)C)C(O)C(O)C(OC)C(=O)NC1CCCCN(C)C1=O (stereo not given) | 4.84 µM (inactive) | 0.773 µM (active) | 5.27 µM (inactive) | 5.12 µM (inactive) | 7.48 µM (inactive) | 4 µM (inactive) | 0.575 µM (active) | 1.86 µM (inactive) | 1.93 µM (inactive) | 1.19 µM (inactive) | 3.95 µM (inactive) | > 10 µM (inactive) | 1.85 µM (inactive) | 2.7 µM (inactive) | 4.31 µM (inactive) | 1.28 µM (inactive) | 3.23 µM (inactive) | 7.71 µM (inactive) | 1.74 µM (inactive) | 7.94 µM (inactive)
